The values that follow come from US5574026A, “Methods for inhibiting angiogenesis proliferation of endothelial or tumor cells and tumor growth” (American Cyanamid Company, priority 1994, dated 1996).

One series concerns HTB 161. The series can be described thus: Antiproliferative activity in human tumor cell lines, PROTOCOL 1 and PROTOCOL 2. The format is cell-based. To be noted: HTB 161, 48 hours. The method, then: (§1) The assays are identified as follows: PROTOCOLS 1, 2, and 3 are described in greater detail hereinbelow. In general, according to PROTOCOLS 1 and 2, the target ABAE and/or Human Tumor cells are exposed to the compounds of Formula I for 48 hours. PROTOCOL 3 exposes ABAE cells to the compounds for 4 days. A detailed description of the Protocols is as follows: Antiproliferative Activity in Human Tumor Cell Lines The antiproliferative activity of the compounds of Formula I of the present invention is evaluated in a panel comprised of human tumor cell lines. […] Cultures are renewed after 20 passages with cells from a fresh stock of batch-frozen early passage cells. Cell lines are routinely checked for mycoplasma contamination (Genprobe). In a laminar flow hood, cells (1-5×10^4) are plated into 96-well microtiter plates in a volume of 0.1 ml/well with a bulk microtiter dispenser (Denley). […] Compounds are added using a Tomtec dispenser which simultaneously dispenses from one 96-well plate, containing the drug dilutions, to the plates containing the cells. After two days of continuous drug exposure, 50% cold trichloroacetic acid (TCA) is added to 10% final concentration to fix the cells, and after 60 minutes at 4° C., the TCA is aspirated and the plates are washed 5 times with deionized water using a microtiter plate washer. […] A 0.4% solution of the dye, sulforhodamine B, in glacial acetic acid is added to the plates, and the plates are washed 5 times with 1% glacial acetic acid using the automatic plate washed. The bound stain is solubilized with 0.1 ml of 10 mMTris base. The optical densities are read from an automatic spectrophotometric plate reader (Dynatech) directly to a main frame computer (VAX 8600). Positive controls, that include standard chemotherapeutic drugs (i.e., adriamycin, cisplatin, etc.), are included in every experiment. Background optical density measurements (complete media--cells, and complete media+drug-cells) are automatically subtracted from the appropriate control and test wells. Mean values and standard errors are determined from duplicate wells. A measure is also made of the optical density at time when the drugs are added. The number of cells after treatment (P), as % of control, is calculated for every concentration of drug, as follows: [formula] wherein: T is optical density measurement for treated cells after 48 hours; C is optical density measurement for untreated cells after 48 hours; Co is optical density measurement for cells at the time of drug addition. IC50 of Growth inhibition is calculated from the sets of P values using the RS-1 data package (BBN Software). Antiproliferative Activity in Human Tumor and Adult Bovine Aortic Endothelial Cell Lines (ABAE) The antiproliferative activity of the compounds of Formula I is evaluated in a panel comprised of human tumor cell lines as listed in Protocol 1 as well as an adult bovine aortic endothelial cell line (ABAE). This assay is a modification of PROTOCOL 1.

Another series concerns A2780S. The series is described as above. The format is cell-based. To be noted: ovarian tumor cell line A2780S, 48 hours, read-out: IC50. The method, then:
as §1

The subject of another series is Human Tumor cell lines. The experiment in a line: Antiproliferative activity in panel of human tumor cell lines (average / panel as a whole), PROTOCOL 1 and PROTOCOL 2. It is filed as cell-based. The conditions noted are these: for IC50: Homo sapiens, average over the tumor cell lines tested. Here is the method: The antiproliferative activity of the compounds of Formula I in an Adult Bovine Aortic Endothelial (ABAE) cell line and in Human Tumor cells lines is evaluated in three similar assays that measure growth inhibition. The assays are identified as follows:
PROTOCOLS 1, 2, and 3 are described in greater detail hereinbelow. In general, according to PROTOCOLS 1 and 2, the target ABAE and/or Human Tumor cells are exposed to the compounds of Formula I for 48 hours. PROTOCOL 3 exposes ABAE cells to the compounds for 4 days. A detailed description of the Protocols is as follows:
Antiproliferative Activity in Human Tumor Cell Lines
The antiproliferative activity of the compounds of Formula I of the present invention is evaluated in a panel comprised of human tumor cell lines. The human tumor cell lines are from
2) Colon tumors: MIP, CACO2, and SW620.
All cell lines are maintained in log phase in RPMI 1640 media, supplemented with 5% fetal calf serum, penicillin/streptomycin and 2 mM L-glutamine. Cultures are renewed after 20 passages with cells from a fresh stock of batch-frozen early passage cells. Cell lines are routinely checked for mycoplasma contamination (Genprobe). In a laminar flow hood, cells (1-5×10^4) are plated into 96-well microtiter plates in a volume of 0.1 ml/well with a bulk microtiter dispenser (Denley). […] At this concentration, dimethylsulfoxide has no effect on cell growth. Compounds are added using a Tomtec dispenser which simultaneously dispenses from one 96-well plate, containing the drug dilutions, to the plates containing the cells. After two days of continuous drug exposure, 50% cold trichloroacetic acid (TCA) is added to 10% final concentration to fix the cells, and after 60 minutes at 4° C., the TCA is aspirated and the plates are washed 5 times with deionized water using a microtiter plate washer. The number of cells on the plate are quantitated using a protein dye-binding assay (Monks et al., 1991). A 0.4% solution of the dye, sulforhodamine B, in […] is added to the plates, and the plates are washed 5 times with 1% glacial acetic acid using the automatic plate washed. The bound stain is solubilized with 0.1 ml of 10 mMTris base. The optical densities are read from an automatic spectrophotometric plate reader (Dynatech) directly to a main frame computer (VAX 8600).
Positive controls, that include standard chemotherapeutic drugs (i.e., adriamycin, cisplatin, etc.), are included in every experiment.
Background optical density measurements (complete media--cells, and complete media+drug-cells) are automatically subtracted from the appropriate control and test wells. Mean values and standard errors are determined from duplicate wells. A measure is also made of the optical density at time when the drugs are added. The number of cells after treatment (P), as % of control, is calculated for every concentration of drug, as follows: [formula] wherein: T is optical density measurement for treated cells after 48 hours;
C is optical density measurement for untreated cells after 48 hours;
Co is optical density measurement for cells at the time of drug addition.
IC50 of Growth inhibition is calculated from the sets of P values using the RS-1 data package (BBN Software).
Antiproliferative Activity in Human Tumor and Adult Bovine Aortic Endothelial Cell Lines (ABAE)
The antiproliferative activity of the compounds of Formula I is evaluated in a panel comprised of human tumor cell lines as listed in Protocol 1 as well as an adult bovine aortic endothelial cell line (ABAE). This assay is a modification of PROTOCOL 1. The modifications include:
1) each concentration for each compound is tested in a single well;
2) compounds are tested at 20, 4, 0.8, 0.16 microgram/ml and additionally in some experiments at 100 and 0.32 microgram/ml;
3) samples are pipetted into a 96-well plate for each of the cell lines by a Beckman Biomek 1000 SL robot; […]

In another series the test system is angiogenesis. To be noted: Brem et al; in words; cited from earlier work.

Values after ≈ are worked out from the molar mass of the structure shown. “Also recorded” adds a separate entry of the source. Counter-ions that a name gives are not always drawn.

On to `CN(C)[C@@H]1C(O)=C(C(N)=O)C(=O)[C@@]2(O)C(O)=C3C(=O)c4c(O)ccc(Br)c4CC3CC12` (stereo partly drawn) [Example 8, [4S-(4α,12aα)]-7-Bromo-4-(dimethylamino)-1,4,4a,5,5a,-6,11,12a-octahydro-3,10,12,12a-tetrahydroxy-1,11-dioxo-2-naphthacenecarboxamide sulfate], for which the IC50 (commonly the concentration needed to halve the response being measured) in the series on HTB 161 was determined as 0.6 µg/mL; in the series on A2780S it was 0.6 µg/mL; in the series on Human Tumor cell lines it was 1.3 µg/mL. For the same compound, the “inhibition of cell growth at the highest concentrations” value with Human Tumor cell lines (FIG. 2, 6 human tumor cell lines, in words) is “no 100% inhibition of cell growth”. In addition, the dead floating cells result in the series with Human Tumor cell lines (even at the highest concentration) was “not observed”.

As for `CN(C)[C@@H]1C(O)=C(C(N)=O)C(=O)[C@@]2(O)C(O)=C3C(=O)c4c(O)ccc(I)c4CC3CC12` (stereo partly drawn) [Example 10, [4S-(4α,12aα)]-4-(Dimethylamino)-4,4,4a,5,5a,6,11,12a-octahydro-3,10,12,12a-tetrahydroxy-7-iodo-1,11-dioxo-2-naphthacenecarboxamide], the results for the IC50 in the series with HTB 161, in the series with A2780S and in the series with Human Tumor cell lines were 0.7 µg/mL (≈ 1.3 µM), 0.7 µg/mL (≈ 1.3 µM) and 1.7 µg/mL (≈ 3.15 µM), respectively.

As for `CN(C)c1ccc(O)c2c1C[C@H]1C[C@H]3[C@H](N(C)C)C(O)=C(C(N)=O)C(=O)[C@@]3(O)C(O)=C1C2=O` [Minocycline, reference compound], the inhibition of angiogenesis result in the series on angiogenesis is “inhibits angiogenesis to an extent comparable to that of the combination therapy of heparin and cortisone; also recorded: useful as inhibitors of angiogenesis”.
